Numbers after ± are expanded uncertainties.
Details: Liquid, Closed cell (Static) method

## CCC(C)O (stereo not drawn) [butan-2-ol]
473.46 K
  vapor or sublimation pressure: 1500 ± 10 kPa

## CCOC(C)=O [ethyl acetate]
462.75 K
  vapor or sublimation pressure: 1500 ± 10 kPa

## COC(C)=O [methyl ethanoate]
436.08 K
  vapor or sublimation pressure: 1500 ± 10 kPa

— the NIST ThermoML archive (doi:10.1021/acs.jced.5b00773)
